In the supplement of paper PMC13380429:

Key:
Settings in all cases: 72 h
[1] = system: Calu-3; test: cell viability relative to DMSO; higher = less toxic
[2] = system: U2OS; test: as above
[3] = system: HepG2; test: as above
[4] = system: Vero E6; test: as above
[5] = system: Caco-2; test: as above
[6] = system: Calu-3; test: drug sensitivity score (DSS) for viability; higher = more toxic; extreme values may be limits of the assay
[7] = system: U2OS; test: as above
[8] = system: HepG2; test: as above
[9] = system: Vero E6; test: as above
[10] = system: Caco-2; test: as above
[11] = system: U2OS; test: relative viability EC50 (midpoint between 100% and the lowest measured viability); higher = less toxic
[12] = system: HepG2; test: as above
[13] = system: Caco-2; test: as above
[14] = system: Vero E6; test: as above

Compound | cell viability ([1]; 1 nM) [%] | cell viability ([1]; 10 nM) [%] | cell viability ([1]; 100 nM) [%] | cell viability ([1]; 1000 nM) [%] | cell viability ([1]; 10000 nM) [%] | cell viability ([2]; 1 nM) [%] | cell viability ([2]; 10 nM) [%] | cell viability ([2]; 100 nM) [%] | cell viability ([2]; 1000 nM) [%] | cell viability ([2]; 10000 nM) [%] | cell viability ([3]; 1 nM) [%] | cell viability ([3]; 10 nM) [%] | cell viability ([3]; 100 nM) [%] | cell viability ([3]; 1000 nM) [%] | cell viability ([3]; 10000 nM) [%] | cell viability ([4]; 1 nM) [%] | cell viability ([4]; 10 nM) [%] | cell viability ([4]; 100 nM) [%] | cell viability ([4]; 1000 nM) [%] | cell viability ([4]; 10000 nM) [%] | cell viability ([5]; 1 nM) [%] | cell viability ([5]; 10 nM) [%] | cell viability ([5]; 100 nM) [%] | cell viability ([5]; 1000 nM) [%] | cell viability ([5]; 10000 nM) [%] | drug sensitivity score [6] | drug sensitivity score [7] | drug sensitivity score [8] | drug sensitivity score [9] | drug sensitivity score [10] | relative viability EC50 [11] [µM] | relative viability EC50 [12] [nM] | relative viability EC50 [13] [µM] | relative viability EC50 [14] [µM]
COc1ccc(-n2c(SCCCN3C(=O)c4cccc5cccc(c45)C3=O)nnc2-c2ccncc2)cc1 [WIKI4] | 96.2 | 103 | 92.8 | 75 | 71.3 | 100 | 109 | 98.6 | 95.7 | 87.3 | 96.3 | 97.6 | 93.4 | 107 | 100 | 97.8 | 101 | 97.9 | 91.8 | 66.8 | 90.5 | 109 | 96 | 87 | 95.6 | 4.7 | 0.2 | 0 | 2.8 | 1.1 | > 10 | > 10000 | > 10 | 
COc1cccc(-c2ccc(NC(=O)C3=C(C(=O)O)CCC3)c(F)c2)c1 |  |  |  |  |  | 99 | 105 | 96.8 | 104 | 96.2 | 103 | 89.4 | 98.8 | 97.5 | 92.6 | 90.1 | 92.2 | 98 | 95.8 | 90.8 | 96.4 | 93.1 | 103 | 98.6 | 78.8 |  | 0 | 0 | 0 | 0.9 | > 10 | > 10000 | > 10 | > 10
O=C(O)C(=O)O.[NH-][C@@H]1CCCC[C@H]1[NH-].[Pt+2] [oxaliplatin] |  |  |  |  |  |  |  |  |  |  |  |  |  |  |  |  |  |  |  |  |  |  |  |  |  | 0 | 0.1 | 6 | 4.8 |  |  |  |  | 
Cc1nc2ccccc2n1Cc1ccc(Cl)cc1 [chlormidazole] |  |  |  |  |  | 99.2 | 95.9 | 98.8 | 96.9 | 95.8 | 92.3 | 95.4 | 109 | 92.1 | 25.1 | 96.7 | 107 | 104 | 107 | 85.9 | 103 | 101 | 109 | 83.1 | 77.8 |  | 0 | 5.4 | 0.1 | 2.4 | > 10 | 2300 | > 10 | > 10
Cc1cccn2c(=O)c(-c3nnn[nH]3)cnc12 [pemirolast] |  |  |  |  |  | 98.4 | 95.1 | 95.4 | 91.5 | 95.6 | 102 | 98.2 | 101 | 96.2 | 92.7 | 89.7 | 88.7 | 88.5 | 96.4 | 93.8 | 95.1 | 98.6 | 92.6 | 96.1 | 97.6 |  | 0 | 0 | 0 | 0 | > 10 | > 10000 | > 10 | > 10
COc1cc2c(c(OC)c1OC)-c1ccc(OC)c(=O)cc1[C@@H](NC(C)=O)CC2 [colchicine] |  |  |  |  |  | 104 | 103 | 25.3 | 20 | 19.2 | 104 | 91.2 | 38 | 34.8 | 39.7 | 101 | 101 | 96.9 | 31.1 | 28.5 | 97.2 | 103 | 45.8 | 46.1 | 41.1 |  | 23.9 | 21.2 | 13.2 | 17.5 | 0.0407 | 24.1 | 0.0419 | 0.308
